According to patent publication US7842703B2, “Substituted benzofused derivatives and their use as vanilloid receptor ligands” (Glenmark Pharmaceuticals S.A., priority 2005, dated 2010):

Target: T1, Human TRPV1 expressing CHO cells (Homo sapiens, UniProt Q8NER1)
T1 construct: expressed in transfected cells; host or cells: CHO cells under G-418 selection
Experiment: Screening for TRPV1 antagonist using the 45Calcium uptake assay (inhibition of capsaicin induced cellular uptake of radioactive calcium)
Assay type: cell-based
Settings: for inhibition at 1 µM: CHO; for inhibition at 1 µM / % inhibition of ^45Ca uptake at 1 μM: test compound 1 μM, capsaicin 250 nM, relative to maximum ^45Ca uptake induced by capsaicin alone; for IC50: inhibition of capsaicin (250 nM) induced ^45Ca uptake
Method: The inhibition of TRPV1 receptor activation was followed as inhibition of capsaicin induced cellular uptake of radioactive calcium which represents calcium influx exclusively through the plasma membrane associated TRPV1 receptor.
Stock solution of capsaicin was made in ethanol and test compounds in 100% DMSO. Stock solutions were diluted to appropriate final concentrations in assay buffer keeping the final DMSO concentration between 0.1% and 0.55%.
^45Ca was used at a final concentration of 2.5 μCi/ml (^45Ca, ICN).
Assay buffer was composed of F-12 DMEM medium supplemented with 1.8 mM CaCl2 (final conc.) and 0.1% Bovine serum albumin. (BSA from SIGMA)
Wash buffer was tyrodes solution supplemented with 0.1% BSA and 1.8 mM calcium. Lysis buffer contained 50 mM Tris-HCl, pH7.5, 150 mM NaCl, 1% Triton X-100, 0.5% deoxycholate and 0.1% Sodium dodicyl sulphate (SDS, SIGMA)
Assay was carried out with some modifications the of procedure as described by Toth et. al. (See Toth A et. al., Life Sciences 73 p 487-498, 2003). Human TRPV1 expressing CHO cells were grown in F-12 DMEM (Dulbecco's modified Eagle's medium—GIBCO) medium with 10% FBS (fetal bovine serum Hyclone), 1% penicillin-streptomycin solution, 400 μg/ml of G-418. Cells were seeded 48 h prior to the assay in 96 well plates so as to get ˜50,000 cells per well on the day of experiment. Plates were incubated at 37° C. in the presence of 5% CO2. Cells were then washed twice with 200 μl of assay buffer and re-suspended in 144 μl of the same. Assay was carried out at 30° C. in total volume of 200 μl. Test compounds were added to the cells fifteen minutes before addition of capsaicin, Final concentration of capsaicin in the assay was 250 nM. After 5 minutes of agonist treatment, drug was washed out and wells rinsed with 300 μl of ice cold wash buffer 3×. The cells were lysed in 50 μl lysis buffer for 20 min. 40 μl of cell lysate was mixed with 150 μl of Microscint PS, left overnight for equilibration. Radioactivity in samples was measured as counts per minute (cpm) using Packard Biosciences Top Count. The drug/vehicle/capsaicin treated ^45Ca uptake values were normalized over basal ^45Ca value. Data was expressed as % inhibition of ^45Ca uptake by test compound with respect to maximum ^45Ca uptake induced by capsaicin alone. IC50 value was calculated from dose response curve by nonlinear regression analysis using GraphPadPRISM software.

T1 sequence (Q8NER1 whole entry): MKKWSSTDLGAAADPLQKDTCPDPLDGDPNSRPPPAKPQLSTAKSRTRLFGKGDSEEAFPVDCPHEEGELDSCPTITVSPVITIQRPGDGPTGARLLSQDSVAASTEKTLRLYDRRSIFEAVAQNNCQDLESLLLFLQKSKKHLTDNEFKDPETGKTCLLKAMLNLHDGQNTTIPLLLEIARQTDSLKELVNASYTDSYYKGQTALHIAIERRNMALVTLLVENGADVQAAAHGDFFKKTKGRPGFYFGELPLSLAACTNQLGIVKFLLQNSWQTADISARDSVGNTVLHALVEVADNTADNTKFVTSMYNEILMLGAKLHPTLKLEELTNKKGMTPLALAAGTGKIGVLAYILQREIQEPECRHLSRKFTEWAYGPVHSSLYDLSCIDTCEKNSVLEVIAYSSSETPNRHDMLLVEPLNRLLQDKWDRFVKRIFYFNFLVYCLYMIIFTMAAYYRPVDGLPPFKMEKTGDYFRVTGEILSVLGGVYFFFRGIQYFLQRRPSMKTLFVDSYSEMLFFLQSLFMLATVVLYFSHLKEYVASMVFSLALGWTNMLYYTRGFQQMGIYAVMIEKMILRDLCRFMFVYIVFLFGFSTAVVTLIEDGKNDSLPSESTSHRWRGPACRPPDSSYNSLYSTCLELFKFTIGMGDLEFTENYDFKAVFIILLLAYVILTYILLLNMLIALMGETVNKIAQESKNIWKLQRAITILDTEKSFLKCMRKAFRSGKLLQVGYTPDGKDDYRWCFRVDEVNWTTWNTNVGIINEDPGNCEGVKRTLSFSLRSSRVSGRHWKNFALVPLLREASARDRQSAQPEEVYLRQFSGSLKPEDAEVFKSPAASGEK

Cc1cc2c(NC(=O)NC3CC4(CCC4)Oc4ccc(F)cc43)cccc2cn1 (racemic) [Example 72, (±) 1-(3,4-Dihydro-6-fluoro-spiro[2H-1-benzopyran-2,1′-cyclobutane]-4-yl)-3-(3-methylisoquinolin-5-yl)urea]
inhibition at 1 µM: > 50%
IC50: 469 nM

O=C(Nc1cccc2cnccc12)NC1CC2(CCC2)Oc2ccc(Cl)cc21 (racemic) [Example 63, (±) 1-(6-Chloro-3,4-dihydro-spiro[2H-1-benzopyran-2,1′-cyclobutane]-4-yl)-3-(isoquinolin-5-yl)urea]
inhibition at 1 µM: > 50%
IC50: 307 nM

O=C(Nc1cccc2ccncc12)NC1CC2(CCC2)Oc2ccccc21 (racemic) [Example 27, (±) 1-(3,4-Dihydrospiro[2H-1-benzopyran-2,1′-cyclobutan]-4-yl)-3-(isoquinolin-8-yl)urea]
inhibition at 1 µM: 46.9%

Cc1nccc2c(NC(=O)NC3CC4(CCC4)Oc4ccc(Cl)cc43)cccc12 (racemic) [Example 74, (±) 1-(6-Chloro-3,4-dihydro-spiro[2H-1-benzopyran-2,1′-cyclobutane]-4-yl-3-(1-methylisoquinolin-5-yl)urea]
inhibition at 1 µM: > 50%
IC50: 917 nM

CC(=O)Nc1ccc2c(c1)C(NC(=O)Nc1cccc3cnccc13)CC1(CCC1)O2 (racemic) [Example 78, (±) 1-(6-Acetamido-3,4-dihydro-spiro[2H-1-benzopyran-2,1′-cyclobutane]-4-yl)-3-(isoquinolin-5-yl)urea]
inhibition at 1 µM: < 50%

O=C(Nc1cccc2ncccc12)NC1CC2(CCC2)Oc2ccccc21 (racemic) [Example 26, (±) 1-(3,4-Dihydrospiro[2H-1-benzopyran-2,1′-cyclobutan]-4-yl)-3-(quinolin-5-yl)urea]
inhibition at 1 µM: 19.8%

Cc1ccc2c(c1)C(NC(=O)Nc1cccc3cnccc13)CC1(CCC1)O2 (racemic) [Example 40, (±)-1-(3,4-Dihydro-6-methyl-spiro[2H-1-benzopyran-2,1′-cyclobutane]-4-yl)-3-(isoquinolin-5-yl)urea]
inhibition at 1 µM: > 50%
IC50: 123 nM

O=C(Nc1nnc(-c2ccc([N+](=O)[O-])cc2)s1)NC1CC2(CCC2)Oc2ccccc21 (racemic) [Example 24, (±) 1-(3,4-Dihydro-spiro[2H-1-benzopyran-2,1′-cyclobutane]-4-yl)-3-(5-(4-nitrophenyl)-1,3,4-thiadiazol-2-yl)urea]
inhibition at 1 µM: < 50%

Cc1ccc2nc(NC(=O)NC3CC4(CCC4)Oc4ccccc43)sc2c1 (racemic) [Example 18, (±) 1-(3,4-Dihydro-spiro[2H-1-benzopyran-2,1′-cyclobutane]-4-yl)-3-(6-methyl-1,3-benzothiazol-2-yl)urea]
inhibition at 1 µM: < 50%

Cc1cc2c(NC(=O)NC3CC4(CCC4)Oc4cc(Cl)ccc43)cccc2cn1 (racemic) [Example 57, (±) 1-(7-Chloro-3,4-dihydro-spiro[2H-1-benzopyran-2,1′-cyclobutane]-4-yl)-3-(3-methylisoquinolin-5-yl)urea]
inhibition at 1 µM: > 50%
IC50: 442 nM

CC(C)(C)c1nnc(NC(=O)NC2CC3(CCC3)Oc3ccccc32)s1 (racemic) [Example 16, (±) 1-(3,4-Dihydro-spiro[2H-1-benzopyran-2,1′-cyclobutane]-4-yl)-3-(5-tert-butyl-1,3,4-thiadiazol-2-yl)urea]
inhibition at 1 µM: > 50%
IC50: 797 nM

O=C(Nc1nc2ccc(Cl)cc2s1)NC1CC2(CCC2)Oc2ccccc21 (racemic) [Example 11, (±) 1-(3,4-Dihydro-spiro[2H-1-benzopyran-2,1′-cyclobutane]-4-yl)-3-(6-chloro-1,3-benzothiazol-2-yl)urea]
inhibition at 1 µM: < 50%

O=C(Nc1cccc2cnccc12)NC1CC2(CCC2)Oc2ccc(OC3CCCC3)cc21 (racemic) [Example 52, (±) 1-(6-Cyclopentyloxy-3,4-dihydro-spiro[2H-1-benzopyran-2,1′-cyclobutane]-4-yl)-3-(isoquinolin-5-yl)urea]
inhibition at 1 µM: < 50%

Cc1ccc2c(c1)OC1(CCC1)CC2NC(=O)Nc1cccc2cnccc12 (racemic) [Example 41, (±) 1-(3,4-Dihydro-7-methyl-spiro[2H-1-benzopyran-2,1′-cyclobutane]-4-yl-3-(isoquinolin-5-yl)urea]
inhibition at 1 µM: > 50%
IC50: 0.48 nM

CNS(=O)(=O)c1ccc2c(c1)C(NC(=O)Nc1cccc3cnccc13)CC1(CCC1)O2 (racemic) [Example 55, (±) 1-(3,4-Dihydro-6-methylaminosulfonyl-spiro[2H-1-benzopyran-2,1′-cyclobutane]-4-yl)-3-(isoquinolin-5-yl)urea]
inhibition at 1 µM: < 50%

Cc1nccc2c(NC(=O)NC3CC4(CCC4)Oc4ccc(F)cc43)cccc12 (racemic) [Example 75, (±) 1-(3,4-Dihydro-6-fluoro-spiro[2H-1-benzopyran-2,1′-cyclobutane]-4-yl)-3-(1-methylisoquinolin-5-yl)urea]
inhibition at 1 µM: > 50%
IC50: 23 nM

O=C(Nc1cccc2c(=O)[nH]ccc12)NC1CC2(CCC2)Oc2ccccc21 (centres unmarked) [Example 30, N′-(1-oxo-1,2-dihydroisoquinolin-5-yl)-N-3,3′,4,4′-tetrahydro-2′H-spiro[chromene-2,1′-cyclobutan]-4-ylurea (N′-(1-oxo-1,2-dihydroisoquinolin-5-yl)-N-3,4-dihydro-2H-spiro[chromene-2,1′-cyclobutan]-4-ylurea)]
% inhibition of ^45Ca uptake at 1 μM: <50%

O=C(Nc1cccc2cnccc12)NC1CC2(CCC2)Oc2c(Cl)cc(Cl)cc21 (racemic) [Example 66, (±) 1-(6,8-Dichloro-3,4-dihydro-spiro[2H-1-benzopyran-2,1′-cyclobutane]-4-yl)-3-(isoquinolin-5-yl)urea]
inhibition at 1 µM: > 50%
IC50: 462 nM

O=C(Nc1cccc2cnccc12)NC1CC2(CCC2)Oc2ccccc21 (single isomer, unassigned; (-)) [Example 5, (−) 1-(3,4-Dihydro-spiro-[2H-1-benzopyran-2,1′-cyclobutan]-4-yl)-3-(isoquinolin-5-yl)urea]
IC50: 304 nM
% inhibition of ^45Ca uptake at 1 μM: >50%

COc1ccc2c(c1)OC1(CCC1)CC2NC(=O)Nc1cccc2cnccc12 (racemic) [Example 47, (±) 1-(3,4-Dihydro-7-methoxy-spiro[2H-1-benzopyran-2,1′-cyclobutane]-4-yl)-3-(isoquinolin-5-yl)urea]
inhibition at 1 µM: > 50%
IC50: 0.21 nM

O=C(Nc1cccc2cnccc12)NC1CC2(CCC2)Oc2cc(Cl)ccc21 (single isomer, unassigned; (-)) [Example 76, (−) 1-(7-Chloro-3,4-dihydro-spiro[2H-1-benzopyran-2,1′-cyclobutane]-4-yl)-3-(isoquinolin-5-yl)urea]
inhibition at 1 µM: < 50%

Cc1cc2c(NC(=O)NC3CC4(CCC4)Oc4cc(OC(F)F)ccc43)cccc2cn1 (racemic) [Example 56, (±) 1-(7-Difluoromethoxy-3,4-dihydro-spiro[2H-1-benzopyran-2,1′-cyclobutane]-4-yl)-3-(3-methylisoquinolin-5-yl)urea]
inhibition at 1 µM: > 50%
IC50: 14.4 nM

O=C(Nc1cccc2cnccc12)NC1CC2(CCC2)Oc2ccccc21 (single isomer, unassigned; (+)) [Example 4, (+) 1-(3,4-Dihydro-spiro-[2H-1-benzopyran-2,1′-cyclobutan]-4-yl)-3-(isoquinolin-5-yl)urea]
inhibition at 1 µM: > 50%
IC50: 7.8 nM

O=C(Nc1cccc2cnccc12)NC1CC2(CCC2)Oc2ccc([N+](=O)[O-])cc21 (racemic) [Example 77, (±) 1-(3,4-Dihydro-6-nitro-spiro[2H-1-benzopyran-2,1′-cyclobutane]-4-yl)-3-(isoquinolin-5-yl)urea]
inhibition at 1 µM: > 50%
IC50: 463 nM

CN1CCC2(CC1)CC(NC(=O)Nc1cccc3cnccc13)c1ccccc1O2 (racemic) [Example 1, (±) 1-{3,4-Dihydro-1′-(methyl)spiro-[2H-1-benzopyran-2,4′-piperidine]-4-yl}-3-(isoquinoline-5-yl)urea]
inhibition at 1 µM: 142%

O=C(Nc1cccc2cnccc12)NC1CC2(CCC2)Oc2cc(OC3CCCC3)ccc21 (racemic) [Example 53, (±) 1-(7-Cyclopentyloxy-3,4-dihydro-spiro[2H-1-benzopyran-2,1′-cyclobutane]-4-yl)-3-(isoquinolin-5-yl)urea]
inhibition at 1 µM: > 50%
IC50: 15.8 nM
